In data set [1] the test system is patients with severe CRF (breast cancer or prostate cancer). Kind of data set: double-blind, placebo-controlled crossover study of intravenous TRH infusions in idiopathic cancer-related fatigue. The data set is classed as in vivo, human. As for the experimental part: Patient Selection. Patients with a diagnosis of cancer, in this study, breast cancer; or prostate cancer, are screened for CRF using a brief fatigue inventory (BFI) in an oncology clinic setting. The BFI is a simple 9-item self-administered scale and requires about 5-10 minutes to complete. Patients experiencing a severe level of fatigue (BFI≧7) are identified based on this screening. These patients then undergo additional screening with a comprehensive interview and laboratory assessments (hemoglobin, hematocrit, thyroid stimulating hormone concentration, and electrolytes) to identify and exclude patients with medically reversible or other treatable causes of fatigue (viz. anemia, hypothyroidism, electrolyte abnormalities, significant pain dominating the CRF presentation). […]
The patients selected undergo a comprehensive assessment to investigate different aspects of fatigue. […] Patients are evaluated for two major psychiatric disorders frequently co-occurring with CRF, depressive disorders and anxiety disorders. […]
The study utilizes a double-blind, placebo-controlled crossover design. […], patients are evaluated in the General Clinical Research Unit (GCRC) of the John Dempsey Hospital and receive intravenous infusions of TRH (0.5 mg for the first active drug trial, 1.5 mg for the second active drug trial) or saline in random order following an ABBA crossover design. […]

For data set [2], the system named is patients with spinocerebellar degeneration (SCD). The following applies: cited from earlier work.
Data set [3] concerns patients with severe CRF (breast cancer or prostate cancer). Kind of data set: randomized, double-blind, placebo-controlled study of taltirelin in idiopathic cancer-related fatigue. The data set is classed as in vivo, human. The note with it: 10 mg vs placebo; after 6 weeks of treatment. As for the experimental part:
Patient Selection. Patients with a diagnosis of cancer, in this study, breast cancer, or prostate cancer, are screened for CRF using a brief fatigue inventory (BFI) in an oncology clinic setting. The BFI is a simple 9-item self-administered scale and requires about 5-10 minutes to complete. Patients experiencing a severe level of fatigue (BFI≧7) are identified based on this screening. […]
Both groups undergo a comprehensive assessment to investigate different aspects of fatigue. […] Patients are also evaluated for two major psychiatric disorders frequently co-occurring with CRF, depressive disorders and anxiety disorders. […]
In the intervention phase of the study, patients receive study medication or placebo based on their group assignments. […] Patients are assessed for their overall status using the clinical global impressions severity of illness scale (CGI-S) at randomization, at week 4 and at the end of the intervention phase. They are also assessed for any global improvement using clinical global impressions improvement scale (CGI-I) at week 4 and at the end of intervention phase. […]

As to `NC(=O)[C@@H]1CCCN1C(=O)[C@H](Cc1cnc[nH]1)NC(=O)[C@@H]1CCC(=O)N1` [TRH, L-pyroglutamyl-L-histidyl-L-prolineamide], the “improving cancer related fatigue, change from baseline in mean fatigue scores assessed using the BFI and MFI” value in data set [1] (TRH 0.5 mg or 1.5 mg infusion vs placebo (saline), each comparison point during 4 week treatment intervention phase) was “superior to placebo”. Besides, the “improving quality of life, change from baseline in mean quality of life scores assessed using SF-36” value in data set [1] (TRH 0.5 mg or 1.5 mg vs placebo, of treatment) is reported as “superior to placebo”.

With `CN1C(=O)C[C@@H](C(=O)N[C@@H](Cc2c[nH]cn2)C(=O)N2CCC[C@H]2C(N)=O)NC1=O` [taltirelin], in data set [2] (Phase III clinical trials and post-marketing surveillance in Japan), the “safety record and side effect profile” value is given as “excellent safety record”. Also, the “efficacy in the treatment of spinocerebellar degeneration (SCD)” value in data set [2] (SCD patients) is on record as “some efficacy”.

Take taltirelin: in data set [3], the “improving cancer related fatigue, change from baseline in mean fatigue scores assessed using BFI and MFI” value is on record as “superior to placebo”; the “improving quality of life, change from baseline in mean quality of life scores assessed using SF-36” value was “superior to placebo”.
